Test results published in ChEMBL document CHEMBL5518209, “Caltrop-like Small-Molecule Antidotes That Neutralize Unfractionated Heparin and Low-Molecular-Weight Heparin In Vivo” (J Med Chem, 2024).
Calls of active or inactive are those of the source. No cut-off for these calls is given here.

Assays:
Homo sapiens [1] = species on record: Homo sapiens; experiment: Reversal of anticoagulation of […] in human whole blood assessed as restoration of normal clotting strength at 2 to 20 ug/ml incubated for 5 mins by thromboelastography; assay type: tissue-based; settings: dose 2-20 µg/ml
[2] = Toxicity in iv dosed ICR mouse assessed as maximum tolerated dose administered through tail vein; assay type: organism-based; settings: in vivo
[3] = Cytotoxicity against human MCF7 cells assessed as cell viability at 300 ug/ml incubated for 24 hrs by CCK-8 assay relative to control; assay type: toxicity, cell-based; settings: at 300 µg/mL, read-out: Activity
Bos taurus [4] = species on record: Bos taurus; experiment: Neutralization of nadroparin calcium in bovine plasma at 10 to 60 ug/ml by aPTT assay; assay type: cell-free; settings: dose 10-60 µg/ml
[5] = Binding affinity to unfractionated heparin in saline at pH 7.4 assessed as increase in fluorescence by measuring inflection point by fluorescence titration method
[6] = Toxicity in Sprague-Dawley rat assessed as change in urine indexes at 0.4 mg/kg, iv measured after 5 hrs; assay type: organism-based; settings: in vivo
[7] = Binding affinity to nadroparin calcium in saline at pH 7.4 assessed as change in gibbs free energy by ITC analysis
Rattus norvegicus [8] = experiment: In vivo antagonism of enoxaparin sodium induced anticoagulation in Sprague-Dawley rat assessed as restoration of normal clotting rate at 1 mg/kg, iv administered via tail vein pretreated with enoxaparin sodium for 5 mins followed by compound addition and measured after 2.5 mins by thromboelastography; assay type: functional, organism-based
[9] = Binding affinity to enoxaparin sodium in saline at pH 7.4 assessed as change in enthalpy by ITC analysis
Rattus norvegicus [10] = experiment: In vivo antagonism of enoxaparin sodium induced anticoagulation in Sprague-Dawley rat assessed as clotting time at 0.4 mg/kg, iv administered via tail vein pretreated with enoxaparin sodium for 5 mins followed by compound addition and measured after 2.5 mins by thromboelastography; assay type: functional
Homo sapiens [11] = species on record: Homo sapiens; experiment: Reversal of anticoagulation of unfractionated heparin in human whole blood assessed as minimum effective dose incubated for 5 mins by thromboelastography; assay type: tissue-based
Mus musculus [12] = experiment: In vivo antagonism of unfractionated heparin induced anticoagulation in ICR mouse assessed as blood loss at 0.4 mg/kg, iv administered via tail vein pretreated with heparin for 5 mins followed by compound addition and measured after 5 mins (reference value: 324.4 +/- 139.5 microL); assay type: functional
[13] = Binding affinity to unfractionated heparin in saline at pH 7.4 assessed as change in entropy by ITC analysis
Homo sapiens [14] = species on record: Homo sapiens; experiment: Reversal of anticoagulation of unfractionated heparin in human whole blood assessed as restoration of normal clotting time at 5 to 20 ug/ml incubated for 5 mins by thromboelastography; assay type: tissue-based; settings: dose 5-20 µg/ml
Homo sapiens [15] = species on record: Homo sapiens; experiment: Reversal of anticoagulation of enoxaparin sodium in human whole blood assessed as minimum effective dose incubated for 5 mins by thromboelastography; assay type: tissue-based
Mus musculus [16] = experiment: In vivo antagonism of unfractionated heparin induced anticoagulation in ICR mouse assessed as bleeding time at 0.4 mg/kg, iv administered via tail vein pretreated with heparin for 5 mins followed by compound addition and measured after 5 mins (reference value: 96.5 +/- 20.6 min); assay type: functional
[17] = Toxicity in ICR mouse assessed as histopathological changes in spleen at 25 mg/kg, iv administered as single dose through tail vein and measured after 14 days by H and E staining based analysis; assay type: organism-based; settings: in vivo, 336 h, time 14 day
Homo sapiens [18] = species on record: Homo sapiens; experiment: Reversal of anticoagulation of enoxaparin sodium in human whole blood assessed as restoration of normal clotting strength at 2 to 20 ug/ml incubated for 5 mins by thromboelastography; assay type: tissue-based; settings: dose 2-20 µg/ml
[19] = Toxicity in ICR mouse assessed as histopathological changes in heart at 25 mg/kg, iv administered as single dose through tail vein and measured after 14 days by H and E staining based analysis; assay type: organism-based; settings: in vivo, 336 h, time 14 day
Homo sapiens [20] = species on record: Homo sapiens; experiment: Reversal of anticoagulation of nadroparin calcium in human whole blood assessed as minimum effective dose incubated for 5 mins by thromboelastography; assay type: tissue-based
Rattus norvegicus [21] = experiment: In vivo antagonism of enoxaparin sodium induced anticoagulation in Sprague-Dawley rat assessed as clotting rate at 0.4 mg/kg, iv administered via tail vein pretreated with enoxaparin sodium for 5 mins followed by compound addition and measured after 2.5 mins by thromboelastography; assay type: functional
Bos taurus [22] = species on record: Bos taurus; experiment: Neutralization of unfractionated heparin in bovine plasma at 10 to 60 ug/ml by aPTT assay; assay type: cell-free; settings: dose 10-60 µg/ml
Blood = experiment: Blood compatibility in human whole blood assessed as effect on clotting strength at 0 to 20 ug/ml measured upto 50 mins by thromboelastography; assay type: toxicity, tissue-based; settings: dose 0-20 µg/ml
Homo sapiens [23] = species on record: Homo sapiens; experiment: Reversal of anticoagulation of unfractionated heparin in human whole blood assessed as restoration of normal clotting strength at 2 to 20 ug/ml incubated for 5 mins by thromboelastography; assay type: tissue-based; settings: dose 2-20 µg/ml
Homo sapiens [24] = species on record: Homo sapiens; experiment: Reversal of anticoagulation of enoxaparin sodium in human whole blood assessed as restoration of normal clotting time at 5 to 20 ug/ml incubated for 5 mins by thromboelastography; assay type: tissue-based; settings: dose 5-20 µg/ml
[25] = Binding affinity to enoxaparin sodium in saline at pH 7.4 assessed as binding constant by ITC analysis
[26] = Binding affinity to nadroparin calcium in saline at pH 7.4 assessed as change in entropy by ITC analysis
[27] = Toxicity in ICR mouse assessed as histopathological changes in kidneys at 25 mg/kg, iv administered as single dose through tail vein and measured after 14 days by H and E staining based analysis; assay type: organism-based, Kidney; settings: in vivo, 336 h, time 14 day
[28] = Binding affinity to dalteparin sodium in saline at pH 7.4 assessed as binding constant by ITC analysis
Homo sapiens [29] = species on record: Homo sapiens; experiment: Reversal of anticoagulation of dalteparin sodium in human whole blood assessed as restoration of normal clotting time at 5 to 20 ug/ml incubated for 5 mins by thromboelastography; assay type: tissue-based; settings: dose 5-20 µg/ml
Homo sapiens [30] = species on record: Homo sapiens; experiment: Neutralization of unfractionated heparin in human poor platelet plasma at 10 to 50 ug/ml by aPTT assay relative to control; assay type: cell-free; settings: dose 10-50 µg/ml
[31] = Toxicity in ICR mouse assessed as histopathological changes in lungs at 25 mg/kg, iv administered as single dose through tail vein and measured after 14 days by H and E staining based analysis; assay type: organism-based, Lung; settings: in vivo, 336 h, time 14 day
[32] = Toxicity in Sprague-Dawley rat assessed as abnormal index of microalbumin at 25 mg/kg, iv measured after 5 hrs; assay type: organism-based; settings: in vivo
[33] = Toxicity in ICR mouse assessed as effect on animal activity at 0.4 to 25 mg/kg, iv administered as single dose through tail vein and measured after 3 to 14 days; assay type: organism-based; settings: in vivo, dose lower 0.4 mg/kg, time lower 3 day, dose upper 25 mg/kg, time upper 14 day
[34] = Binding affinity to dalteparin sodium in saline at pH 7.4 assessed as increase in fluorescence by measuring inflection point by fluorescence titration method
[35] = Binding affinity to unfractionated heparin in saline at pH 7.4 assessed as change in gibbs free energy by ITC analysis

## NCCOc1ccc(-c2cc[n+](Cc3ccc(C(c4ccc(C[n+]5ccc(-c6ccc(OCCN)c(OCCN)c6)cc5)cc4)(c4ccc(C[n+]5ccc(-c6ccc(OCCN)c(OCCN)c6)cc5)cc4)c4ccc(C[n+]5ccc(-c6ccc(OCCN)c(OCCN)c6)cc5)cc4)cc3)cc2)cc1OCCN.[Cl-].[Cl-].[Cl-].[Cl-]
Homo sapiens [1]
  Activity: Active
[2]
  MTD: 25 mg/kg
[3]
  viability at 24 h, 300 ug/ml: > 80%
Bos taurus [4]
  Activity: Active
[5]
  IP: 2.4
[6]
  Activity: Non-Toxic
[7]
  deltaG: -9.92 kcal/mol
Rattus norvegicus [8]
  Activity: Active
[9]
  deltaH: -7.86 kcal/mol
Rattus norvegicus [10]
  Time: 3.63 min
Homo sapiens [11]
  MED: 4 µg/mL
Mus musculus [12]
  Activity: 26.1 µL
[13]
  -TdeltaS: -4.32 kcal/mol
Homo sapiens [14]
  Activity: Active
Homo sapiens [15]
  MED: 4 µg/mL
Mus musculus [16]
  Time: 22.7 min
[17]
  Activity: Non-Toxic
Homo sapiens [18]
  Activity: Active
[19]
  Activity: Non-Toxic
Homo sapiens [20]
  MED: 4 µg/mL
Rattus norvegicus [21]
  Activity: 1.95 min
Bos taurus [22]
  Activity: Active
Blood
  Activity: Toxic
Homo sapiens [23]
  Activity: Active
Homo sapiens [24]
  Activity: Active
[25]
  Ka: 1.79e+07 M⁻¹
[26]
  -TdeltaS: -3.4 kcal/mol
[27]
  Activity: Non-Toxic
[28]
  Ka: 4.78e+07 M⁻¹
Homo sapiens [29]
  Activity: Active
Homo sapiens [30]
  Activity: 100%
[31]
  Activity: Non-Toxic
[32]
  Activity: Toxic
[33]
  Activity: Non-Toxic
[34]
  IP: 2.6
[35]
  deltaG: -10.2 kcal/mol
